The text below walks through data of patent publication US20240116910A1, “Heterocycles as WIP1 Inhibitors” (PMV Pharmaceuticals, Inc., priority 2022, published 2024).

As usually defined, the IC50 is the concentration needed to halve the response being measured.

Chain of recombinant His-tag Wip1(2-420) protein (amino acids #2-420) (O15297 2-420): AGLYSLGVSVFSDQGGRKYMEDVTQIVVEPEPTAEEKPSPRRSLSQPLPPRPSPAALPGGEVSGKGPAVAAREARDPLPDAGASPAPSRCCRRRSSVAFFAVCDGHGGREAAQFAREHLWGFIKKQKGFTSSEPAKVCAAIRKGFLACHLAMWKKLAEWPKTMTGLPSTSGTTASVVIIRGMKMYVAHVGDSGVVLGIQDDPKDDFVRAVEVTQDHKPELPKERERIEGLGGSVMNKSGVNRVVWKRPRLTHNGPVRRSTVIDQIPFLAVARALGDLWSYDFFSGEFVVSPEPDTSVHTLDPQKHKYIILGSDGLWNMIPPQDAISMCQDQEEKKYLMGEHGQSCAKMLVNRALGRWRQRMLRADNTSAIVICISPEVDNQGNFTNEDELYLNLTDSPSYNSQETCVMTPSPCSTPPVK

The test concerns the target recombinant His-tag Wip1(2-420) protein (amino acids #2-420) (Homo sapiens (Human), UniProt O15297). Briefly: Wip1(2-420) phosphatase enzyme FDP assay. Format: biochemical. The settings on record: fluorescein diphosphate (FDP) substrate, RT 2 hours, fluorescence Ex485/Em535; read-out: WIP1 (Truncated 2-420) FDP Assay: IC50. The method, then:
The Human Wip1 (2-420, aa 2-420) or Wip1 full length (aa 1-605) DNA sequence was codon optimized and synthesized by Genscript for insect cell expression. The open reading frame of Wip1(2-420) with a N-terminal-His6 affinity tag followed by a TEV cleavage site was subcloned sites into the pFastBac1 expression vector. The recombinant bacmid DNA was transfected in Sf9 insect cells for baculovirus production. After 72 hours infection, the Sf9 cells were harvested by centrifugation and resuspended in lysis buffer containing 50 mM Tris/HCl, pH 8.0, 500 mM NaCl, 20% glycerol, Benzonase 0.5% CHAPS and Roche cOmplete™ EDTA free protease inhibitors. Cells were disrupted with microfluidizer and the debris was removed by centrifugation at 185,000 g for 1 hour. The supernatant was subjected to HisTrap FF for affinity purification. Proteins were eluted with a linear gradient of 0-500 mM imidazole in HisTrap buffer containing 50 mM Tris/HCl, pH 8.0, 500 mM NaCl and 20% glycerol, 0.05% CHAPS. The eluted protein was dialyzed against dialysis buffer (20 mM MES, 100 mM NaCl, 20% glycerol, 0.5 mM TCEP, 0.05% CHAPS) followed purification via HiTrap SP HP column. The protein was eluted with a gradient of 100 mM-2 M NaCl in dialysis buffer. His6-[…] was finally concentrated and loaded onto a size-exclusion column (NiLoad 16/600 Superdex 200 pg, GE Healthcare) pre-equilibrated with 50 mM MOPS (pH 7.5), 200 mM NaCl, 20% glycerol, 1 mM TCEP, 0.05% CHAPS and 0.1 mM EGTA. The peak fractions containing purified Nis6-Wip1(2-420) were pooled and concentrated to 1.0 mg/mL and flash frozen at −80° C.
Wip1 Length and Wip1(2-420) Phosphatase Enzyme FDP Assays.
Test compounds (252 mM stock in DMSO) were diluted 3 folds in series in DMSO and 1.2 μl per well were added into 384-well polypropylene black plates (Nunc). Twelve μl per well of Assay Buffer (100 mM NaCl, 50 mM MOPS, pH 7.5, 0.8 mM CHAPS, 0.1 mM EGTA, 30 mM MgCl2, 0.3 mM TCEP, 0.2 mg/mL BSA) was added followed by […] per well of 50.4 nM recombinant His-tag Wip1 full length protein (amino acids #1-605) or recombinant His-tag Wip1(2-420) protein (amino acids #2-420) in Assay Buffer and the plate was incubated at RT (22° C.) for 5 min. Ten mM of fluorescein diphosphate (FDP) in DMSO was diluted to […] in Assay Buffer and […] per well was added to the plate and incubated at RT (22° C.) for 2 hours. […] per well of 64.1 mM EDTA in water were added to stop the enzyme reaction. The plate was centrifuged at 1,200 rpm (Eppendorf 5810R Plate centrifuge) for 1 minute and fluorescence intensity (Ex485/Em535) was measured on Perkin Elmer Victor Reader. EC50 values were calculated using either Prism (GraphPad) or ActivityBase software (IDBS), The IC50 results are provided in Table M.
For the compound `Cc1ncc(Cl)cc1N[C@@H](C)c1ccc(C(=O)N[C@@H](CC2CCCCC2)C(=O)Nc2ccc(F)cc2)s1` [Compound 112, (2S)-2-({5-[(1S)-1-[(5-chloro-2-methylpyridin-3-yl)amino]ethyl]thiophen-2-yl}formamido)-3-cyclohexyl-N-(4-fluorophenyl)propanamide], the half-inhibitory concentration (IC50) is 4 nM.

For the compound `C[C@@H](Nc1cc(Cl)cnc1C(F)(F)F)c1ccc(C(=O)N[C@@H](CC2CCCC2)C(=O)NC2CC2)s1` [Compound 190, (2S)-2-({5-[(1R)-1-{[5-chloro-2-(trifluoromethyl)pyridin-3-yl]amino}ethyl]thiophen-2-yl}formamido)-3-cyclopentyl-N-cyclopropylpropanamide], the IC50 was found to be 224 nM.

With `Cc1cc(NC(=O)[C@H](CC2CCCC2)NC(=O)c2cnc([C@H](C)Nc3cccc(Cl)c3)s2)cc(C)n1` [Compound 128, (2S)-2-({2-[(1S)-1-[(3-chlorophenyl)amino]ethyl]-1,3-thiazol-5-yl}formamido)-3-cyclopentyl-N-(2,6-dimethylpyridin-4-yl)propanamide], the IC50 stood at 3910 nM.

Turning to `C[C@H](Nc1cc(Cl)cnc1-c1cccnc1)c1ccc(C(=O)N[C@@H](CC2CCCC2)C(=O)NC2CC2)s1` [Compound 232, (2S)-2-({5-[(1S)-1-({5-chloro-[2,3′-bipyridin]-3-yl}amino)ethyl]thiophen-2-yl}formamido)-3-cyclopentyl-N-cyclopropylpropanamide], the IC50 turned out to be 13 nM.

As for `Cc1ncc(Cl)cc1N[C@H](Cc1cnn(C)c1)c1ccc(C(=O)N[C@@H](CC2CCCC2)C(=O)NC2CC2)s1` [Compound 170, (2S)-2-({5-[(1R)-1-[(5-chloro-2-methylpyridin-3-yl)amino]-2-(1-methyl-1H-pyrazol-4-yl)ethyl]thiophen-2-yl}formamido)-3-cyclopentyl-N-cyclopropylpropanamide], the IC50 amounted to 217 nM.

With `C[C@H](Nc1cc(Cl)cnc1C(N)=O)c1ccc(C(=O)N[C@@H](CC2CCCC2)C(=O)NC2CC2)s1` [Compound 228, 5-chloro-3-{[(1S)-1-(5-{[(1S)-2-cyclopentyl-1-(cyclopropylcarbamoyl)ethyl]carbamoyl}thiophen-2-yl)ethyl]amino}pyridine-2-carboxamide], the IC50 was 5 nM.

As for `Cc1ncc(Cl)cc1N[C@@H](C)c1ccc(C(=O)N[C@@H](CC2CCCC2)C(=O)Nc2cc[nH]n2)s1` [Compound 155, (2S)-2-({5-[(1S)-1-[(5-chloro-2-methylpyridin-3-yl)amino]ethyl]thiophen-2-yl}formamido)-3-cyclopentyl-N-(1H-pyrazol-3-yl)propanamide], the IC50 came out at 7 nM.

In the case of `Cc1ncc(Cl)cc1N[C@H](Cc1ccccc1)c1ccc(C(=O)N[C@@H](CC2CCCC2)C(=O)NC2CC2)s1` [Compound 261, (2S)-2-({5-[(1R)-1-[(5-chloro-2-methylpyridin-3-yl)amino]-2-phenylethyl]thiophen-2-yl}formamido)-3-cyclopentyl-N-cyclopropylpropanamide], the IC50 came to 40 nM.

For `COC[C@H](Nc1cc(Cl)cnc1C)c1ccc(C(=O)N[C@@H](CC2CCCC2)C(=O)NC2CC2)s1` [Compound 159, (2S)-2-({5-[(1S)-1-[(5-chloro-2-methylpyridin-3-yl)amino]-2-methoxyethyl]thiophen-2-yl}formamido)-3-cyclopentyl-N-cyclopropylpropanamide], the IC50 stood at 13 nM.

In the case of `Cc1ncc(Cl)cc1NC(C)(C)c1ccc(C(=O)N[C@@H](CC2CCCC2)C(=O)NC23CC(C#N)(C2)C3)s1` [Compound 266, (2S)-2-[(5-{2-[(5-chloro-2-methylpyridin-3-yl)amino]propan-2-yl}thiophen-2-yl)formamido]-N-{3-cyanobicyclo[1.1.1]pentan-1-yl}-3-cyclopentylpropanamide], the IC50 came out at 20 nM.

Consider `Cc1ncc(Cl)cc1NC(c1ccc(C(=O)N[C@@H](CC2CCCC2)C(=O)NC2CC2)s1)C(F)(F)F` (stereo partly drawn) [Compound 224, (2S)-2-[(5-{1-[(5-chloro-2-methylpyridin-3-yl)amino]-2,2,2-trifluoroethyl}thiophen-2-yl)formamido]-3-cyclopentyl-N-cyclopropylpropanamide], for which the IC50 was 132 nM.
